From article PMC7284125, “Identification of annotated bioactive molecules that impair motility of the blood fluke Schistosoma mansoni” (International Journal for Parasitology: Drugs and Drug …, 2020)
Residues, ends and D or L forms follow the SMILES beside them. *: point of attachment. Cbz = O=C(OCc1ccccc1)*

Key:
schistosomes = system: schistosomes; set-up: method as in Guerra-Sa et al., 2005; conditions: treated mice; ref Guerra-Sa et al., 2005; cited from earlier work
[1] = system: S. mansoni schistosomulae; assay: Motility assay on schistosomulae (pixel displacement, relative to DMSO control); assay type: cell-based, Schistosoma mansoni; conditions: schistosomulae
How it was run: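 Mechanically transformed S. mansoni schistosomulae (200/well) in Opti-MEM with 5% dialyzed FBS were exposed to compounds at 1 and 10 μM for 24 h at 37 °C, 5% CO2. Motility filmed at 10 frames/s for 1 min and quantified by pixel displacement relative to DMSO-treated controls.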

[2] = system: S. mansoni schistosomulae; assay: Phenotypic primary screen assay on schistosomulae (phenotype; viability by methylene blue dye exclusion); assay type: cell-based, Schistosoma mansoni; conditions: three-day-old schistosomulae, 10 μM, 24 h
How it was run: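 Parasites lacking contraction/relaxation cycles and showing dark internal granulations counted as dead. Movement and body shape were compared with DMSO-treated controls under a stereo microscope at 24 h and at five days of exposure. Larvae came from infected snails shed under light for 2 h at 32 °C.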

S. mansoni adult worms = assay: Motility assay on adult parasites (pixel displacement, relative to DMSO control); assay type: cell-based, Schistosoma mansoni; conditions: 10 μM; for Fractional motility: secondary screen
How it was run: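 Unpaired adult worms from mice 6 weeks post-infection kept in OPTI-MEM with 5% dialyzed FBS and exposed to compounds at 1 and 10 μM for 24 h. Motility filmed 1 min at 10 frames/s, quantified by pixel displacement versus DMSO-treated worms; recovery followed up to five days after washout.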

[3] = system: naïve Glo HEK293 cells (no receptor); assay: cAMP luminescence (GloSensor) assay on naïve Glo HEK293 cells (no receptor); assay type: cell-based, human; conditions: 20 μM forskolin
Protocol: The SmGPR2 sequence previously identified ([El-Shehabi and Ribeiro, 2010]) was codon optimized for mammalian expression and subcloned in the vector pCI-neo (Addgene, USA) using the XbaI and NotI restriction enzymes. A FLAG fusion tag ([…]) was introduced at the N-terminal end of the receptor sequence. Stable transfection of HEK293 cells (ATCC; CRL-1573) was performed using the X-tremeGENE 9 DNA transfection reagent (Sigma Aldrich). Cells were then cultured at 37 °C, 5% CO2 in Opti-MEM supplemented with 5% FBS and maintained in 400 μg/mL G418 (Sigma Aldrich) for selection of transformants. […] All cell lines expressing S. mansoni GPCRs were then transfected with the GloSensor encoding plasmid p22F (Promega) and media was supplemented with 100 μg/mL hygromycin for stable expression (ThermoFisher).
(§1) Adherent HEK293 cells were seeded at a density of 5 x 10^4 cells/well (96-well plate) in Opti-MEM without FBS or antibiotics and incubated overnight at 37 °C and 5% CO2 prior to the assay. In place of the media, 100 μL HBSS supplemented with 0.1% bovine serum albumin (BSA), 500 μM 3-isobutyl-1-methylxanthine (IBMX, Sigma Aldrich), 20 mM HEPES (pH 7.4) and 1 mg/mL D-luciferin (Goldbio) was added to each well. After a 2 h incubation period at room temperature, luminescence background was recorded, and compounds and control ligands were added at 10X concentration. Immediately after compound addition, luminescence was read over a 45 min period to detect compounds stimulating cAMP release through receptor activation. […] For each assay, luminescence responses were recorded in triplicate and repeated with four independant cell batches. Compounds were also added to naïve Glo HEK293 cells (no receptor) and the robustness of the assay was calculated as: Z^'=1−3×(SDmax+SDmin)/Meanmax−Meanmin with max and min referring respectively to cells expressing GPCRs and Glo (no receptor) cells. Cellular viability was assessed using a CellTiter Glo 2.0 kit (Promega). Glo cells were exposed to 10 μM of each hit compound for 3 h in Opti-MEM at 37 °C, 5% CO2. An equimolar concentration of tamoxifen (Sigma Aldrich) was used as a positive control. 2X cell lysis media was then added and end-point luminescence recorded after a 10 min stabilization time.

Glo HEK293 cells = assay: Cellular viability, CellTiter Glo 2.0; assay type: cell-based, human; conditions: 10 μM, 3 h
Protocol: as §1, with “An equimolar concentration of tamoxifen (Sigma Aldrich) was used as a positive control.” left out

Sm5HTR = Sm5HTR (Schistosoma mansoni, UniProt G4V5G4); assay: cAMP luminescence (GloSensor) assay, HEK293 cells expressing Sm5HTR; assay type: cell-based, S. mansoni; conditions: compound incubation followed by 50 μM 5-HT
Sm5HTR, sequence (G4V5G4 entry or part of it): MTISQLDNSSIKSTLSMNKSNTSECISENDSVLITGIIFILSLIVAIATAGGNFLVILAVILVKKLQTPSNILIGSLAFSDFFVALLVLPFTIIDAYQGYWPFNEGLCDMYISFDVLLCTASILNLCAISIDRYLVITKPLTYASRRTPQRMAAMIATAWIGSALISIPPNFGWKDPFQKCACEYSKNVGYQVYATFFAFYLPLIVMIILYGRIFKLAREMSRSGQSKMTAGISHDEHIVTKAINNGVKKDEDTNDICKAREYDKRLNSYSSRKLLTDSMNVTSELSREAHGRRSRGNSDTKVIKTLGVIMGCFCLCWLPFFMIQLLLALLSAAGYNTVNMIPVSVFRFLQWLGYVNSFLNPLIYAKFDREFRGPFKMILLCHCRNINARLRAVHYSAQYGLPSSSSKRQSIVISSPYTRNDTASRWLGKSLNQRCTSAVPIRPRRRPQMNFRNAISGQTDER

SmGPR2 = SmGPR2 (Schistosoma mansoni, UniProt G4VIY8); assay: cell-based
SmGPR2, sequence (G4VIY8 entry or part of it): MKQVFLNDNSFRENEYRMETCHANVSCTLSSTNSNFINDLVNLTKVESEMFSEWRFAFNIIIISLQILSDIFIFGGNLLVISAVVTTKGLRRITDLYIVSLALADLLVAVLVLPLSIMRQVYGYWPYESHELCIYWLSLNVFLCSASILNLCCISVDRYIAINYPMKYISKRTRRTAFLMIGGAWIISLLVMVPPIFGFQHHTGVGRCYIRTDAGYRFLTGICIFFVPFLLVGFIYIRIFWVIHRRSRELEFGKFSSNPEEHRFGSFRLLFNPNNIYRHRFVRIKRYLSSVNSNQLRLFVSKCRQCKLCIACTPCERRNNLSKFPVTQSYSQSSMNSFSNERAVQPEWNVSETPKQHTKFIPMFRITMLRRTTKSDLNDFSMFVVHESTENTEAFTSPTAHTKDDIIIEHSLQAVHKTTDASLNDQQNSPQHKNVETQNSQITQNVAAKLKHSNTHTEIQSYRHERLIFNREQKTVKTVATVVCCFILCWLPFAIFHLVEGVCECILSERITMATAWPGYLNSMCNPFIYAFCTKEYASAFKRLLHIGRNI
Protocol: The SmGPR2 sequence previously identified ([El-Shehabi and Ribeiro, 2010]) was codon optimized for mammalian expression and subcloned in the vector pCI-neo (Addgene, USA) using the XbaI and NotI restriction enzymes. A FLAG fusion tag ([…]) was introduced at the N-terminal end of the receptor sequence. Stable transfection of HEK293 cells (ATCC; CRL-1573) was performed using the X-tremeGENE 9 DNA transfection reagent (Sigma Aldrich). Cells were then cultured at 37 °C, 5% CO2 in Opti-MEM supplemented with 5% FBS and maintained in 400 μg/mL G418 (Sigma Aldrich) for selection of transformants. […]
Adherent HEK293 cells were seeded at a density of 5 x 10^4 cells/well (96-well plate) in Opti-MEM without FBS or antibiotics and incubated overnight at 37 °C and 5% CO2 prior to the assay. […] After a 2 h incubation period at room temperature, luminescence background was recorded, and compounds and control ligands were added at 10X concentration. Immediately after compound addition, luminescence was read over a 45 min period to detect compounds stimulating cAMP release through receptor activation. […] For each assay, luminescence responses were recorded in triplicate and repeated with four independant cell batches. […] Cellular viability was assessed using a CellTiter Glo 2.0 kit (Promega). […] 2X cell lysis media was then added and end-point luminescence recorded after a 10 min stabilization time.

CC(C)C[C@@H](C=O)NC(=O)[C@H](CC(C)C)NC(=O)[C@H](CC(C)C)NC(=O)OCc1ccccc1 [MG-132] (Cbz-Leu-Leu-Leu-aldehyde)
fewer parasites migrated to the lung compared to control animals (schistosomes): 65%

Cc1ccc(S(=O)(=O)c2ccc([N+](=O)[O-])o2)cc1 [NSC697923]
Fractional motility ([1]; 1h exposure, read at D1, 10 µM): -0.93
Fractional motility ([1]; 1h exposure, read at D5, 10 µM): -1.00
Fractional motility ([1]; 3h exposure, read at D1, 10 µM): -1.00
Fractional motility ([1]; 3h exposure, read at D5, 10 µM): -0.99
Fractional motility ([1]; 6h exposure, read at D1, 10 µM): -0.93
Fractional motility ([1]; 6h exposure, read at D5, 10 µM): -0.99
Fractional motility ([1]; secondary screen, 24h exposure, read at D1, 1 µM): -0.18
Fractional motility ([1]; secondary screen, 24h exposure, read at D1, 10 µM): 3.05
Fractional motility ([1]; secondary screen, 24h exposure, read at D5, 1 µM): -0.90
Fractional motility ([1]; secondary screen, 24h exposure, read at D5, 10 µM): -1.00
Viability (%) ([2]; calculated 5 days post compound exposure): 0%
Phenotype ([2]; estimated 5 days post compound exposure): dark, granulated
motility phenotype in words (S. mansoni adult worms; adults, long-term after washout): Significant hypomotility
Fractional motility (S. mansoni adult worms; D1, Female adult worms): 0.25
Fractional motility (S. mansoni adult worms; D1, Male adult worms): 0.30
Fractional motility (S. mansoni adult worms; D5, Female adult worms): -0.95
Fractional motility (S. mansoni adult worms; D5, Male adult worms): -0.78
effect on luminescence evoked by forskolin [3]: significant decrease in luminescence
reduction of ATP released by cells (Glo HEK293 cells): 48.1 ± 5.7%
inhibition of Sm5HTR 5-HT-evoked signals (Sm5HTR): ≥ 50%

NCCc1c[nH]cn1 [histamine]
EC50 (SmGPR2): 12.5 ± 1.5 µM
